Reference: patent US20250084084A1, “Crystalline form of (2R)-2-(5-fluoro-2-methoxypyridin-4-yl)-1-[(2S)-7-methyl-6-(pyrimidin-2-yl)-3,4-dihydro-1H-spiro[1,8-naphthyridine-2,3-pyrrolidin]-1-yl]propan-1-one” (Pfizer Inc., priority 2020, published 2025)

biological target: α-melanocyte-stimulating hormone receptor (hMC4R) (Homo sapiens (Human), UniProt P32245); test: In vitro binding affinity assay using hMC4R (radioligand competition binding, [125I]-(Nle4, D-Phe7)-α-MSH); conditions: geometric mean, read-out: Ki (nM) geometric
Sequence (P32245 whole entry): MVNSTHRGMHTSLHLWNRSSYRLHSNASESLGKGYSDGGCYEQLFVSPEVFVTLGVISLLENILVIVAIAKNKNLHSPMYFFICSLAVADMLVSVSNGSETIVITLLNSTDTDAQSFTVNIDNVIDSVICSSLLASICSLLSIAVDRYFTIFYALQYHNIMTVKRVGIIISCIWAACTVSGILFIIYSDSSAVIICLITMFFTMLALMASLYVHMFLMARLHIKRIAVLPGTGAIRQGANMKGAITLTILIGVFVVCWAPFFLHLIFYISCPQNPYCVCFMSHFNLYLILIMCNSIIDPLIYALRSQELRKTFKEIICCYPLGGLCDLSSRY
Method: The binding affinity of test compounds at the α-melanocyte-stimulating hormone receptor (hMC4R) was assessed using a radioligand competition binding assay. Recombinant Chinese hamster ovaries (CHO) cells stably expressing hMC4R (PerkinElmer #ES-191-C) were used for competitive binding. hMC4R membranes were grown in Dulbecco's Modified Essential Medium and Ham's F-12 Medium (DMEM/F12), 10% heat inactivated fetal bovine serum (FBS), 0.4 mg/mL Geneticin and 2 mM L-glutamine. Cell membranes were bulked and frozen until the assay was performed.
Compounds were solubilized in 100% dimethyl sulfoxide (DMSO) to a concentration of 30 mM. A 10-point intermediate dilution series using half log dilutions was created in 100% DMSO with a top concentration of 0.03 mM. The serially diluted compounds were spotted as 1 μL/well, in 96-well Costar 3363 plates. The final compound range in the assay was 300 nM to 0.01 nM with a final DMSO concentration of 1%. Control wells, containing 1 μL of 2 mM ([…]) alpha-melanocyte stimulating hormone (α-MSH-Tocris #2584) was added to the non-specific binding wells and 1 μL 100% DMSO for the total binding control wells. […] The exact concentration of radioligand used for each experiment was determined by liquid scintillation counting and adjusted if necessary.
Frozen hMC4R cell membranes were thawed and Dounce homogenized. Homogenates were resuspended in assay buffer to a concentration of 2 μg per well. […] The plates were incubated for 2 hours at room temperature. Assay samples were then rapidly filtered through Unifilter-96 GF/B PEI coated filter plates using a filter plate harvester (PerkinElmer) and rinsed with ice-cold wash buffer [25 mM (4-(2-hydroxyethyl)-1-piperazineethanesulfonic acid (HEPES), 1 mM MgCl2, 2.5 mM CaCl2, and 500 mM NaCl]. Filter plates were dried overnight at room temperature. Plates were then bottom-sealed prior to the addition of 50 μL/well Ultima Gold XR scintillation fluid (PerkinElmer 6013111). Plates were then top-sealed, incubated for 60 minutes at room temperature and then the amount of radioactivity present was determined by liquid scintillation counting on a Microbeta Trilux (PerkinElmer #2450-0060).
The raw data (expressed as counts per minute) were analyzed using ActivityBase (IDBS Data Management Software). […] Equilibrium dissociation constant for inhibitor of ligand and receptor interaction (Ki) values were then calculated from the IC50 values using the Cheng-Prusoff equation: Ki=IC50/(1+([L]/Kd)), where [L] is the concentration of the radioligand used in the experiment and Kd is the affinity of the radioligand (determined in separate saturation experiments).

| SMILES | Ki |
| --- | --- |
| COc1cc(C(C)(F)C(=O)N2CC[C@@]3(CCc4cc(-c5ncccn5)c(C)nc4N3)C2)c(F)cn1 (single isomer, unassigned) [Example 148] | 12 nM |
| COc1cc([C@@H](C)C(=O)N2CC[C@@]3(CCc4cc(-c5nnn(C)n5)c(C)nc4N3)C2)ccn1 (single isomer, unassigned) [Example 125] | 3.4 nM |
| COc1cc([C@@H](C)C(=O)N2CC[C@@]3(CCc4cc(-c5cccc(C(F)F)n5)c(C)nc4N3)C2)c(F)cn1 [Example 181, (2R)-1-{(2S)-6-[6-(difluoromethyl)pyridin-2-yl)-7-methyl-3,4-dihydro-1H-spiro[1,8-naphthyridine-2,3′-pyrrolidin]-1′-yl}-2-(5-fluoro-2-methoxypyridin-4-yl)propan-1-one] | 2.4 nM |
| COc1cc([C@@H](C)C(=O)N2CC[C@]3(CCc4cc(-c5nnn(C)n5)c(C)nc4N3)C2)c(F)cn1 [Example 116, (2R)-2-(5-fluoro-2-methoxypyridin-4-yl)-1-[(2R)-7-methyl-6-(2-methyl-2H-tetrazol-5-yl)-3,4-dihydro-1H-spiro[1,8-naphthyridine-2,3′-pyrrolidin]-1′-yl]propan-1-one] | 7.1 nM |
| COc1cc([C@@H](C)C(=O)N2CC[C@@]3(CCc4cc(-c5cnn(C)n5)c(C)nc4N3)C2)c(Cl)cn1 [Example 119, (2R)-2-(5-chloro-2-methoxypyridin-4-yl)-1-[(2S)-7-methyl-6-(2-methyl-2H-1,2,3-triazol-4-yl)-3,4-dihydro-1H-spiro[1,8-naphthyridine-2,3′-pyrrolidin]-1′-yl]propan-1-one] | > 17 nM |
| COc1cc([C@@H](C)C(=O)N2CC[C@@]3(CCc4cc(-c5nc(C(F)(F)F)cs5)c(C)nc4N3)C2)c(F)cn1 [Example 182, (2R)-2-(5-fluoro-2-methoxypyridin-4-yl)-1-{(2S)-7-methyl-6-[4-(trifluoromethyl)-1,3-thiazol-2-yl]-3,4-dihydro-1H-spiro[1,8-naphthyridine-2,3′-pyrrolidin]-1′-yl}propan-1-one] | 12 nM |
| Cc1nc2c(cc1-c1nnn(C)n1)CC[C@@]1(CCN(C(=O)[C@H](C)c3ccc(OC(F)F)nc3)C1)N2 (single isomer, unassigned) [Example 107] | 57 nM |

More lines, now with the values ahead:

| Ki | SMILES |
| --- | --- |
| 81 nM | COc1cc([C@@H](C)C(=O)N2CC[C@@]3(CCc4cc(-c5ccc6sc(C)nc6c5)c(C)nc4N3)C2)c(F)cn1 [Example 165, (2R)-2-(5-fluoro-2-methoxypyridin-4-yl)-1-[(2S)-7-methyl-6-(2-methyl-1,3-benzothiazol-5-yl)-3,4-dihydro-1H-spiro[1,8-naphthyridine-2,3′-pyrrolidin]-1′-yl]propan-1-one] |
| 8.7 nM | COc1cc([C@@H](C)C(=O)N2CC[C@@]3(CCc4cc(-c5ncc(C(F)(F)F)cn5)c(C)nc4N3)C2)c(F)cn1 [Example 145, (2R)-2-(5-fluoro-2-methoxypyridin-4-yl)-1-{(2S)-7-methyl-6-[5-(trifluoromethyl)pyrimidin-2-yl]-3,4-dihydro-1H-spiro[1,8-naphthyridine-2,3′-pyrrolidin]-1′-yl}propan-1-one] |
| 2 nM | COc1cc([C@@H](C)C(=O)N2CC[C@@]3(CCc4cc(-c5ncc(Cl)cn5)c(C)nc4N3)C2)c(F)cn1 [Example 144, (2R)-1-[(2S)-6-(5-chloropyrimidin-2-yl)-7-methyl-3,4-dihydro-1H-spiro[1,8-naphthyridine-2,3′-pyrrolidin]-1′-yl]-2-(5-fluoro-2-methoxypyridin-4-yl)propan-1-one] |
| 43 nM | COc1cc([C@@H](C)C(=O)N2CC[C@@]3(CCc4cc(-c5cnc(C(F)(F)F)nc5)c(C)nc4N3)C2)c(F)cn1 [Example 170, (2R)-2-(5-fluoro-2-methoxypyridin-4-yl)-1-{(2S)-7-methyl-6-[2-(trifluoromethyl)pyrimidin-5-yl]-3,4-dihydro-1H-spiro[1,8-naphthyridine-2,3′-pyrrolidin]-1′-yl}propan-1-one] |
| 18 nM | COc1cc([C@@H](C)C(=O)N2CC[C@@]3(CCc4cc(-c5nccnc5C)c(C)nc4N3)C2)c(F)cn1 [Example 164, (2R)-2-(5-fluoro-2-methoxypyridin-4-yl)-1-[(2S)-7-methyl-6-(3-methylpyrazin-2-yl)-3,4-dihydro-1H-spiro[1,8-naphthyridine-2,3′-pyrrolidin]-1′-yl]propan-1-one] |
| 3.9 nM | COc1cc([C@@H](C)C(=O)N2CC[C@@]3(CCc4cc(-c5cnsc5)c(C)nc4N3)C2)c(F)cn1 [Example 150, (2R)-2-(5-fluoro-2-methoxypyridin-4-yl)-1-[(2S)-7-methyl-6-(1,2-thiazol-4-yl)-3,4-dihydro-1H-spiro[1,8-naphthyridine-2,3′-pyrrolidin]-1′-yl]propan-1-one] |
| 0.82 nM | COc1cc([C@@H](C)C(=O)N2CC[C@@]3(CCc4cc(-c5nccc(C(F)F)n5)c(C)nc4N3)C2)c(F)cn1 [Example 200, (2R)-1-{(2S)-6-[4-(difluoromethyl)pyrimidin-2-yl]-7-methyl-3,4-dihydro-1H-spiro[1,8-naphthyridine-2,3′-pyrrolidin]-1′-yl}-2-(5-fluoro-2-methoxypyridin-4-yl)propan-1-one] |

same assay, conditions: geometric mean, read-out: Ki (nM) geometric mean

| SMILES | Ki |
| --- | --- |
| Cc1nc(OC(F)F)cc([C@@H](C)C(=O)N2CC[C@@]3(CCc4cc(-c5ncccn5)c(C)nc4N3)C2)n1 (single isomer, unassigned) [Example 44] | 54 nM |
| COc1cc([C@@H](C)C(=O)N2CC[C@@]3(CCc4ccc(C)nc4N3)C2)c(Cl)cn1 (single isomer, unassigned) [Example 100] | 1.1 nM |
| COc1cc([C@@H](C)C(=O)N2CC[C@@]3(CCc4cc(-c5ncccn5)c(C)nc4N3)C2)c(F)cn1 [Example 14, (2R)-2-(5-Fluoro-2-methoxypyridin-4-yl)-1-[(2S)-7-methyl-6-(pyrimidin-2-yl)-3,4-dihydro-1H-spiro[1,8-naphthyridine-2,3′-pyrrolidin]-1′-yl]propan-1-one] | 0.46 nM |
| COc1cc([C@@H](C)C(=O)N2CC[C@@]3(CCc4ccc(C)nc4N3)C2)nc(C)n1 (single isomer, unassigned) [Example 23, 2-(6-methoxy-2-methylpyrimidin-4-yl)-1-(7-methyl-3,4-dihydro-1H-spiro[1,8-naphthyridine-2,3′-pyrrolidin]-1′-yl)propan-1-one] | 21 nM |
| Cc1nc2c(cc1-c1nnn(C)n1)CC[C@@]1(CCN(C(=O)Cc3ccc(C(F)(F)F)cc3)C1)N2 (single isomer, unassigned) [Example 65, 1-[7-methyl-6-(2-methyl-2H-tetrazol-5-yl)-3,4-dihydro-1H-spiro[1,8-naphthyridine-2,3′-pyrrolidin]-1′-yl]-2-[4-(trifluoromethyl)phenyl]ethan-1-one] | 1.7 nM |
| Cc1nc2c(cc1-c1ncccn1)CC[C@@]1(CCN(C(=O)[C@H](C)c3cc(N(C)C)ncc3F)C1)N2 (single isomer, unassigned) [Example 81] | 6.6 nM |
| Cc1nc2c(cc1-c1ncccn1)CC[C@@]1(CCN(C(=O)[C@H](C)c3ccc(F)c(F)c3)C1)N2 (single isomer, unassigned) [Example 50] | 0.81 nM |
| COc1cc([C@@H](C)C(=O)N2CC[C@]3(CCc4cc(-c5ncccn5)c(C)nc4N3)C2)c(F)cn1 [Example 29, (2R)-2-(5-fluoro-2-methoxypyridin-4-yl)-1-[(2R)-7-methyl-6-(pyrimidin-2-yl)-3,4-dihydro-1H-spiro[1,8-naphthyridine-2,3′-pyrrolidin]-1′-yl]propan-1-one] | 11 nM |
| COc1cc([C@@H](C)C(=O)N2CC[C@@]3(CCc4cc(-c5nc(C(F)(F)F)n(C)n5)c(C)nc4N3)C2)c(F)cn1 (single isomer, unassigned) [Example 92] | 0.45 nM |

Further lines, results first:

| Ki | SMILES |
| --- | --- |
| 2.2 nM | COc1cc([C@@H](C)C(=O)N2CC[C@@]3(CCc4cc(-c5ncc(C(F)F)cn5)c(C)nc4N3)C2)c(F)cn1 [Example 21, (2R)-1-{(2S)-6-[5-(difluoromethyl)pyrimidin-2-yl]-7-methyl-3,4-dihydro-1H-spiro[1,8-naphthyridine-2,3′-pyrrolidin]-1′-yl}-2-(5-fluoro-2-methoxypyridin-4-yl)propan-1-one] |
| 2.6 nM | COc1cc([C@@H](C)C(=O)N2CCC3(CCc4cc(-c5coc(C)n5)c(C)nc4N3)C2)c(F)cn1 (mixture of isomers) [Example 33, (2R)-2-(5-fluoro-2-methoxypyridin-4-yl)-1-[7-methyl-6-(2-methyl-1,3-oxazol-4-yl)-3,4-dihydro-1H-spiro[1,8-naphthyridine-2,3′-pyrrolidin]-1′-yl]propan-1-one] |
